Bridge positions count the residues as written; N and C are the ends. Square brackets hold non-standard residues; d marks the D form. Peptide text beside a SMILES is read from it.
Columns and labels:
Gram-positive bacteria [1] = assay: minimum inhibitory concentration (MIC) assays against four types of Gram-positive bacteria; assay type: cell-based; conditions: for MIC: four Gram-positive bacteria studied, homologues as TFA salts; for antibiotic activity in MIC assays, result in words: Gram-positive bacteria, mostly compared with Arg10-teixobactin; for MIC values lower than those of Arg10-teixobactin (fold): relative to Arg10-teixobactin; for MIC values: four species of Gram-positive bacteria
Excerpt: The antibiotic activity of Arg10-teixobactin and homologues was investigated in minimum inhibitory concentration (MIC) assays against four types of Gram-positive bacteria, as well as control substances, in order to elucidate the importance of various functionalities within teixobactin analogues and guide the rational design of new antimicrobial compounds (as summarized in Tables 1, 2 and 3 (FIGS. 5A, 5B, and 5C respectively). These MIC studies used vancomycin as a positive control and the Gram-negative bacterium E. coli as a negative control.

[2] = gel formation / solubility; assay type: physicochemical; conditions: propensity to form a gel
Experimental: In addition, according to many embodiments of the invention, teixobactin homologues can be functionalized at position 9 to improve solubility for easier or more efficient drug administration. For example, Arg10-teixobactin has the propensity to form a gel at concentrations as low as 5 mg/mL. This poor solubility will hamper the ability of Arg10-teixobactin or any other teixobactin derivative to be used as a drug because it will impede intravenous administration. […] More specifically, in some embodiments of the invention the water solubility of teixobactin analogues can be improved by functionalization of position 9 with polyethylene glycol (PEG) derivatives. In one embodiment, Ala9 is replaced with a PEG-containing amino acid, such as Gln(PEG6OMe), the derivative of Glu, in which the side chain has been coupled to H2NCH2CH2(OCH2CH2)5OMe.

Gram-positive bacteria [3] = conditions: literature structure-activity studies; cited from earlier work

Row | Compound | antibiotic activity in MIC assays, result in words (Gram-positive bacteria [1]) | also measured
1 | CC[C@H](C)[C@H](NC(=O)[C@@H](Cc1ccccc1)NC)C(=O)N[C@@H](CO)C(=O)N[C@H](CCC(N)=O)C(=O)N[C@@H](C(=O)N[C@H](C(=O)N[C@@H](CO)C(=O)N[C@H]1C(=O)N[C@@H](C)C(=O)N[C@@H](CCCNC(=N)N)C(=O)N[C@@H]([C@@H](C)CC)C(=O)O[C@H]1C)[C@@H](C)CC)[C@@H](C)CC [Arg10-teixobactin] | – | MIC (Gram-positive bacteria [1]): 1 to 4 µg/mL; concentration at which a gel forms [2]: ≥ 5 mg/mL; activity relative to teixobactin in MIC assays (Gram-positive bacteria [3]): about an order of magnitude less active
2 | CC[C@H](C)[C@H](N)C(=O)N[C@@H](CO)C(=O)N[C@H]1C(=O)N[C@@H](C)C(=O)N[C@@H](CCCNC(=N)N)C(=O)N[C@@H]([C@@H](C)CC)C(=O)O[C@H]1C [short-Arg10-teixobactin] (H-IS[dT]ARI; ester 3-C) | – | MIC (Gram-positive bacteria [1]): > 32 µg/mL
3 | Ac-Δ1-5-Arg10-teixobactin | inactive | –
4 | Ala3,Lys10-teixobactin | diminished the activity of position 10 lysine analogue | –
5 | Ala7,Arg10-teixobactin | greatly diminished activity | –
6 | Arg10Lys11-teixobactin | loss of activity | –
7 | Chg6,Arg10,Chg11-teixobactin | slightly greater activity than Arg10-teixobactin | MIC values lower than those of Arg10-teixobactin (fold) (Gram-positive bacteria [1]): lower by a factor of two
8 | D-Dap8,Arg10-teixobactin | comparable activity to Arg10-teixobactin | –
9 | D-allo-Ile11,Arg10-teixobactin | half as active | –
10 | Glu(PEG-Biotinyl)9,Lys10-teixobactin | – | MIC values (Gram-positive bacteria [1]): 2-16 micrograms/mL
11 | Lys6Arg10-teixobactin | loss of activity | –
12 | Lys9Arg10-teixobactin | – | antibiotic activity in MIC assays, result in words (Gram-positive bacteria [1]; listed as Lys9,Arg10-teixobactin): proven activity
13 | Lys10-teixobactin | comparable to those of vancomycin | MIC values lower than those of Arg10-teixobactin (fold) (Gram-positive bacteria [1]): 2-4 times
14 | Lys(Mca)9,Lys10-teixobactin | – | MIC values (Gram-positive bacteria [1]): 1-8 micrograms/mL
15 | Orn10-teixobactin | excellent to satisfactory antimicrobial activity | –
16 | dodecanoyl-Δ1-5-Arg10-teixobactin [lipobactin 1] | activity close to that of Arg10-teixobactin | –
17 | ent-Arg10-teixobactin | comparable activity to Arg10-teixobactin | –

Source: patent US11046730B2, “Antimicrobial compositions” (The Regents of the University of California, priority 2016, dated 2021)
